Assay results from patent US11970474B2, “Substituted benzodiazoles and use thereof in therapy” (THOMAS HELLEDAYS STIFTELSE FÖR MEDICINSK FORSKNING, priority 2018, dated 2024).

Target: OGG1 (Homo sapiens (Human), UniProt O15527)
Experiment: In vitro OGG1 activity assay
Assay type: biochemical
Conditions: 800 pM OGG1 enzyme, 2 nM human APEX1, 10 nM 8-oxoA:C substrate
Description: Method 1: In Vitro OGG1 Activity Assay OGG1 activity is assayed by measuring the increase in fluorescence from a duplex oligonucleotide containing an OGG1 substrate and a fluorophore in close proximity that are quenched by a quencher on the complementary strand. […] OGG1 activity releases the substrate base from DNA by cleaving the N-glycosidic bond between base and deoxyribose. The resulting apurinic site is cleaved by an excessive amount APEX1 activity which cause the duplex to melt, which in turn cause the fluorophore to become unquenched. Compounds to be tested are dissolved in DMSO and nano-dispensed directly into black 384-well plates, followed by transfer of enzyme and substrate solutions. […] The fluorescent signal is recorded in a plate reader equipped with suitable filters to register fluorescein fluorescence.

Sequence of OGG1 (O15527 whole entry): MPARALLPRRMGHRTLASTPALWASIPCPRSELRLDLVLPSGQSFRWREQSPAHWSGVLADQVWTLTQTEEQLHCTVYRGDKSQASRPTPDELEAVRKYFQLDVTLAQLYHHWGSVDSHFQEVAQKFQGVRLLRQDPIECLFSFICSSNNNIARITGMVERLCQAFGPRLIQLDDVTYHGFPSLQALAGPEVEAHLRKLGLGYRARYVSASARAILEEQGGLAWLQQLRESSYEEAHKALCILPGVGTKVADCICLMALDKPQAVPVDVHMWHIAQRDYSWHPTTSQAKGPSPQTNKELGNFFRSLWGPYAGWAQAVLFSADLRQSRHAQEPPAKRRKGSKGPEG

Row | IC50 | Structure (SMILES)
1 | 2800 nM | O=C(Nc1ccc(Cl)cc1)N1CCC(n2c(=O)[nH]c3cc(Cl)ccc32)CC1 [Example 1, 4-(5-Chloro-2-oxo-2,3-dihydro-1H-1,3-benzodiazol-1-yl)-N-(4-chlorophenyl) piperidine-1-carboxamide]
2 | 660 nM | Cc1cccc2c1[nH]c(=O)n2C1CCN(C(=O)Nc2ccc(I)cc2)CC1 [Example 4, N-(4-iodophenyl)-4-(4-methyl-2-oxo-2,3-dihydro-1H-1,3-benzodiazol-1-yl)piperidine-1-carboxamide]
3 | 540 nM | O=C(Nc1ccc(I)cc1)N1CCC(n2c(=O)[nH]c3c(O)cccc32)CC1 [Example 6, 4-(4-Hydroxy-2-oxo-2,3-dihydro-1H-1,3-benzodiazol-1-yl)-N-(4-iodophenyl)piperidine-1-carboxamide]
4 | 1080 nM | Cc1cccc2c1[nH]c(=O)n2C1CCN(C(=O)Nc2ccc(Cl)cc2)CC1 [Example 7, N-(4-chlorophenyl)-4-(4-methyl-2-oxo-2,3-dihydro-1H-1,3-benzodiazol-1-yl)piperidine-1-carboxamide]
5 | 1550 nM | COc1cccc2c1[nH]c(=O)n2C1CCN(C(=O)Nc2ccc(Cl)cc2)CC1 [Example 8, N-(4-chlorophenyl)-4-(4-methoxy-2-oxo-2,3-dihydro-1H-1,3-benzodiazol-1-yl)piperidine-1-carboxamide]
6 | 796 nM | O=C(Nc1ccc(Cl)c(Cl)c1)N1CCC(n2c(=O)[nH]c3c(O)cccc32)CC1 [Example 9, N-(3,4-dichlorophenyl)-4-(4-hydroxy-2-oxo-2,3-dihydro-1H-1,3-benzodiazol-1-yl)piperidine-1-carboxamide]
7 | 1780 nM | Cc1ccc2c(c1)[nH]c(=O)n2C1CCN(C(=O)Nc2ccc(I)cc2)CC1 [Example 11, N-(4-iodophenyl)-4-(5-methyl-2-oxo-2,3-dihydro-1H-1,3-benzodiazol-1-yl)piperidine-1-carboxamide]
8 | 1420 nM | O=C(Nc1ccc(I)c(Cl)c1)N1CCC(n2c(=O)[nH]c3cc(Cl)ccc32)CC1 [Example 17, 4-(5-Chloro-2-oxo-2,3-dihydro-1H-1,3-benzodiazol-1-yl)-N-(3-chloro-4-iodophenyl)piperidine-1-carboxamide]
9 | 1390 nM | CCOc1cccc2c1[nH]c(=O)n2C1CCN(C(=O)Nc2ccc(I)cc2)CC1 [Example 18, 4-(4-Ethoxy-2-oxo-2,3-dihydro-1H-1,3-benzodiazol-1-yl)-N-(4-iodophenyl)piperidine-1-carboxamide]
10 | 765 nM | O=C(Nc1ccc(I)cc1)N1CCC(n2c(=O)[nH]c3c(-c4ccc[nH]4)cccc32)CC1 [Example 25, N-(4-iodophenyl)-4-[2-oxo-4-(1H-pyrrol-2-yl)-2,3-dihydro-1H-1,3-benzodiazol-1-yl]piperidine-1-carboxamide]
11 | 2060 nM | Nc1cccc(-c2cccc3c2[nH]c(=O)n3C2CCN(C(=O)Nc3ccc(Cl)c(Cl)c3)CC2)c1 [Example 29, 4-[4-(3-Aminophenyl)-2-oxo-2,3-dihydro-1H-1,3-benzodiazol-1-yl]-N-(3,4-dichlorophenyl)piperidine-1-carboxamide]
12 | 1710 nM | O=C(Nc1ccc(I)cc1)N1CCC(n2c(=O)[nH]c3c(CCO)cccc32)CC1 [Example 30, 4-[4-(2-Hydroxyethyl)-2-oxo-2,3-dihydro-1H-1,3-benzodiazol-1-yl]-N-(4-iodophenyl)piperidine-1-carboxamide]
13 | 1090 nM | O=C(Nc1ccc(I)cc1)N1CCC(n2c(=O)[nH]c3c(C4CC4)cccc32)CC1 [Example 31, 4-(4-Cyclopropyl-2-oxo-2,3-dihydro-1H-1,3-benzodiazol-1-yl)-N-(4-iodophenyl)piperidine-1-carboxamide]
14 | 2530 nM | NCc1ccc(-c2cccc3c2[nH]c(=O)n3C2CCN(C(=O)Nc3ccc(Cl)c(Cl)c3)CC2)cc1 [Example 33, 4-{4-[4-(Aminomethyl)phenyl]-2-oxo-2,3-dihydro-1H-1,3-benzodiazol-1-yl}-N-(3,4-dichlorophenyl)piperidine-1-carboxamide]
15 | 502 nM | O=C(Nc1ccc(I)cc1)N1CCCC(n2c(=O)[nH]c3c(Br)cccc32)CC1 (stereo not drawn) [Example 34, 4-(4-Bromo-2-oxo-2,3-dihydro-1H-1,3-benzodiazol-1-yl)-N-(4-iodophenyl)azepane-1-carboxamide]
16 | 1970 nM | O=C(O)c1ccc(-c2cccc3c2[nH]c(=O)n3C2CCN(C(=O)Nc3ccc(Cl)c(Cl)c3)CC2)cc1 [Example 35, 4-(1-{1-[(3,4-Dichlorophenyl)carbamoyl]piperidin-4-yl}-2-oxo-2,3-dihydro-1H-1,3-benzodiazol-4-yl)benzoic acid]
17 | 3650 nM | CN(C)CCOc1ccc(-c2cccc3c2[nH]c(=O)n3C2CCN(C(=O)Nc3ccc(Cl)c(Cl)c3)CC2)cc1 [Example 36, N-(3,4-dichlorophenyl)-4-(4-{4-[2-(dimethylamino)ethoxy]phenyl}-2-oxo-2,3-dihydro-1H-1,3-benzodiazol-1-yl)piperidine-1-carboxamide]
18 | 6320 nM | O=C(Nc1ccc(Cl)c(Cl)c1)N1CCC(n2c(=O)[nH]c3c(-c4ccc(C(=O)C(F)(F)F)cc4)cccc32)CC1 [Example 40, N-(3,4-dichlorophenyl)-4-{2-oxo-4-[4-(2,2,2-trifluoroacetyl)phenyl]-2,3-dihydro-1H-1,3-benzodiazol-1-yl}piperidine-1-carboxamide]
19 | 2410 nM | CCc1ccc(NC(=O)N2CCC(n3c(=O)[nH]c4c(Br)cccc43)CC2)cc1 [Example 42, 4-(4-Bromo-2-oxo-2,3-dihydro-1H-1,3-benzodiazol-1-yl)-N-(4-ethylphenyl)piperidine-1-carboxamide]
20 | 408 nM | Cc1cc(NC(=O)N2CCC(n3c(=O)[nH]c4c(-c5ccc(CO)nc5)cccc43)CC2)ccc1I [Example 81, 4-{4-[6-(Hydroxymethyl)pyridin-3-yl]-2-oxo-2,3-dihydro-1H-1,3-benzodiazol-1-yl}-N-(4-iodo-3-methylphenyl)piperidine-1-carboxamide]
21 | 1760 nM | CCN(CC)C(=O)c1cnn(-c2cccc3c2[nH]c(=O)n3C2CCN(C(=O)Nc3ccc(I)cc3)CC2)c1 [Example 88, 4-{4-[4-(Diethylcarbamoyl)-1H-pyrazol-1-yl]-2-oxo-2,3-dihydro-1H-1,3-benzodiazol-1-yl}-N-(4-iodophenyl)piperidine-1-carboxamide]
22 | 218 nM | O=C(NCC(O)CO)c1cnn(-c2cccc3c2[nH]c(=O)n3C2CCN(C(=O)Nc3ccc(I)cc3)CC2)c1 (stereo not drawn) [Example 90, 4-(4-{4-[(2,3-Dihydroxypropyl)carbamoyl]-1H-pyrazol-1-yl}-2-oxo-2,3-dihydro-1H-1,3-benzodiazol-1-yl)-N-(4-iodophenyl)piperidine-1-carboxamide]
23 | 1810 nM | COc1cc(NC(=O)N2CCC(n3c(=O)[nH]c4c(-c5cccnc5)cccc43)CC2)ccc1C [Example 95, N-(3-methoxy-4-methylphenyl)-4-[2-oxo-4-(pyridin-3-yl)-2,3-dihydro-1H-1,3-benzodiazol-1-yl]piperidine-1-carboxamide]
24 | 1720 nM | COc1cc(NC(=O)N2CCC(n3c(=O)[nH]c4c(-c5cncc(N)c5)cccc43)CC2)ccc1C [Example 97, 4-[4-(5-Aminopyridin-3-yl)-2-oxo-2,3-dihydro-1H-1,3-benzodiazol-1-yl]-N-(3-methoxy-4-methylphenyl)piperidine-1-carboxamide]
